# Measured values from patent US20100329971A1, “NOVEL HYDROXY RADICAL GENERATION METHOD, AND ANTI-VIRAL MATERIAL UTILIZING HYDROXYL RADICAL GENERATED BY THE METHOD” (MOCHIGASE CO., LTD., priority 2008, published 2010).
# Marks after values point to notes of the source that are not given here.
# Assays:
# [1] = Amount of generated hydroxyl radicals under shaded condition or room light, HPF reagent (Example 14); details: measured 1 hour after preparation
# [2] = Quantification of hydroxyl radical production by HPF fluorescence intensity (Examples 13 and 18); details: HPF 5 μM, room temperature 15 minutes; for Amount of generated radicals: 0.1 M phosphoric acid buffer, fluorescence intensity
# [3] = Amount of generated hydroxyl radicals using combinations of calcium hydroxide, magnesium oxide and magnesium hydroxide (Example 17); details: left shaded for 72 hours; total 1% by weight; only calcium hydroxide = 100%
# Description: Specifically, each reagent was mixed as described below to prepare a specimen to be measured using a suspension of a metal oxide and/or a hydroxide in a manner similar to Example 15. HPF reagent (Daiichi Pure Chemicals Co., Ltd.): 0.1 μL 0.5 M phosphoric acid buffer (pH 7.0): 20 μL Pure water: 49.9 μL Each suspension: 30 μL Table 7 indicates the concentrations and amounts of metal oxide and/or hydroxide in each specimen to be measured. [table]
# [4] = Duration of hydroxyl radical generation, HPF reagent (Example 16); details: shaded, 100% = 0.1% titanium oxide irradiated with room light 30 minutes
# [5] = Amount of generated hydroxyl radicals using metal oxides and hydroxides, HPF reagent (Example 15); details: left shaded for 1 hour; 100% = 0.1% titanium oxide irradiated with room light 30 minutes
# spike proteins = spike proteins (Severe acute respiratory syndrome coronavirus, UniProt P59594)
# [6] = Shaded, 100% = 0.1% titanium oxide irradiated 30 minutes
SMILES,Amount of generated radicals [2],Amount of generated hydroxyl radicals % of activity in Ca(OH)2 [3],Amount of generated hydroxyl radicals (% of control) After 1 hour [4],Amount of generated hydroxyl radicals (% of control) After 12 hours [4],Amount of generated hydroxyl radicals (% of control) [5],also measured
"[O]=[Ti]=[O] [0.1% titanium oxide, titanium oxide]",,,,,,"Amount of generated hydroxyl radicals ([1]; Irradiated with room light for 30 minutes then shaded, this value assumed to be 100%): 100^1) %; Amount of generated hydroxyl radicals [1, 6]: 3.92%"
"[Mg+2].[OH-].[OH-] [Magnesium hydroxide (1%), magnesium hydroxide]",11907,144.14 % of activity in Ca(OH)2,26.17 % of control,62.18 % of control,26.17 % of control,"Amount of generated hydroxyl radicals [1, 6]: 28.33%"
"[Ca+2].[OH-].[OH-] [Calcium hydroxide (1%), calcium hydroxide]",6236,100.00 % of activity in Ca(OH)2,14.27 % of control,47.49 % of control,14.27 % of control,
"[Na+].[OH-] [Sodium hydroxide (1%), sodium hydroxide]",,,,,3.29 % of control,
"[Mg+2].[OH-].[OH-] [specimen No. 7, magnesium hydroxide]",,,,,,"amounts of generated radicals (rank order) ([2]; comparison of specimens Nos. 7, 8 and 3): specimen No. 7>specimen No. 8>specimen No. 3"
"[O]=[Mg] [Magnesium oxide (1%), magnesium oxide, reference compound]",3918,77.84 % of activity in Ca(OH)2,15.07 % of control,34.15 % of control,15.07 % of control,
"[K+].[OH-] [Potassium hydroxide (1%), potassium hydroxide]",,,,,2.88 % of control,
O=C([O-])c1ccccc1O.[Na+] [sodium salicylate],,,,,,"bands corresponding to spike proteins, electrophoresis without a reducing agent (spike proteins): recovery of bands corresponding to spike proteins was confirmed"
